From patent publication US20250057876A1, “METHODS FOR TREATING AND/OR PREVENTING LYMPHANGIOGENESIS-ASSOCIATED DISEASES BY USING GOLD NANOCLUSTERS” (MacKay Memorial Hospital, priority 2023, published 2025)

Test system: ISO-induced cardiac injured mice
Assay: Echocardiography in isoproterenol (ISO)-induced heart failure model
Type: in vivo, mouse
Details: co-treatment of MAZ-51 with FANCs in ISO-treated mice, vs ISO+FANC group
Protocol: Male 7-weeks-old C57BL/6 mice were purchased from BioLasco Inc. (Yilan, Taiwan), The mice were treated with FANCs (20 μM; about 0.57 mg/kg body weight) via an abdominal implant using osmotic pump system on Day 0. Then, the mice were subcutaneously treated with ISO (150 mg/kg) on Day 14. After 14 days from ISO injection, echocardiography was performed on Day 28 to measure the cardiac function of the mice. The animals were then sacrificed, and their hearts were harvested for histological and pathological examination.
The experimental echocardiography for the mice was conducted after the mice were anesthetized with isoflurane (Abbott Laboratories Ltd., England; delivered to achieve a concentration of 1-2% in a combination of oxygen and nitrous oxide mixed at a ratio of 50:50 with air). […] Parameters including tissue Doppler used to determine contractile velocity (TDI-S′), deformation-based circumferential systolic strain measure, and quantitative indices of tissue structure integrated backscatter intensity from dynamic myocardial motions, were used to assess systolic myocardial performance using ECG-gated off-line analysis on the EchoPac Workstation.

Question: With `CN(C)c1ccc(/C=C2/C(=O)Nc3ccccc32)c2ccccc12` [MAZ-51, (3E)-3-[[4-(dimethylamino)naphthalen-1-yl]methylidene]-JH-inden-2-one] as the compound, how does the “effect on FANCs improved cardiac function” value read?
Answer: abolished
